For one test, the system named is deacetylase OngB. Description: Substrate specificity analysis of OngB (acetate production). Particulars: 5 μM OngB, 25 mM substrate, 10 mM Bis-Tris-HCl (pH 7.5), 25° C., 30 min; FIG. 4A. The class given is biochemical, Pseudoalteromonas prydzensis ACAM 620. The protocol: Substrate specificity assays were performed with GlcNAc1A, GlcNAc, GlcNAc-6-P, N-acetyl-D-glutamate and N-acetyl-D-serine. Standard reaction system contained 5 μM OngB, 25 mM substrate and 10 mM Bis-Tris-HCl (pH 7.5). Reactions were conducted at 25° C. for 30 min. The production of acetate in the reaction mixture was determined with an Acetic Acid (ACS Analyser Format) Assay Kit. One unit of enzyme (U) is defined as the amount of enzyme required to release 1 μmol of acetate per minute.
In the case of `CC(=O)N[C@H]1C(O)O[C@H](CO)[C@@H](O)[C@@H]1O` (stereo partly drawn) [GlcNAc, N-acetyl-D-glucosamine], the “OngB activity towards substrate (production of acetate)” value (“OngB activity towards substrate” below) is given as “little or no activity”.

Take `CC(=O)N[C@H](CO)C(=O)O` [N-acetyl-D-serine]: the “OngB activity towards substrate” value was “little or no activity”.

`CC(=O)N[C@@H](C(=O)O)[C@@H](O)[C@H](O)[C@H](O)CO` [GlcNAc1A, 2-(acetylamino)-2-deoxy-D-gluconic acid]: the “OngB activity towards substrate” value is listed as “high substrate specificity”.

As to `CC(=O)N[C@@H]1[C@@H](O)[C@H](O)[C@@H](COP(=O)(O)O)O[C@@H]1O` [GlcNAc-6-P], the “OngB activity towards substrate” value is “little or no activity”.

Regarding `CC(=O)N[C@H](CCC(=O)O)C(=O)O` [N-acetyl-D-glutamate], the “OngB activity towards substrate” value is reported as “little or no activity”.

The subject of a further test is deaminase OngC. Description: Substrate specificity analysis of OngC (ammonia production). The class given is biochemical, Pseudoalteromonas prydzensis ACAM 620. The conditions noted are these: 0.5 μM OngC, 10 mM substrate, 10 mM Bis-Tris-HCl (pH 7.5), 25° C., 30 min; FIG. 4B. As to the method: Substrate specificity assays were performed with GlcN1A, D-glucosamine, D-galactosamine and D-mannosamine. GlcN1A was prepared by incubating 10 μM OngB with 10 mM GlcNAc1A in 10 mM Bis-Tris-HCl (pH 7.5) at 25° C. for 4 h. Standard reaction system contained 0.5 μM OngC, 10 mM substrate and 10 mM Bis-Tris-HCl (pH 7.5). Reactions were conducted at 25° C. for 30 min. The production of ammonia in the reaction mixture was determined with an AMMONIA (Rapid) ASSAY PROCEDURE. One unit of enzyme (U) is defined as the amount of enzyme required to release 1 μmol of ammonia per minute.
As to `N[C@H]1C(O)O[C@H](CO)[C@@H](O)[C@@H]1O` (stereo partly drawn) [D-glucosamine], the “OngC activity towards substrate (production of ammonia)” value (“OngC activity towards substrate” for short) was “little or no activity”.

Turning to `N[C@@H](C(=O)O)[C@@H](O)[C@H](O)[C@H](O)CO` [GlcN1A, 2-(amino)-2-deoxy-D-gluconic acid], the “OngC activity towards substrate” value was “high substrate specificity”.

`N[C@H]1C(O)O[C@H](CO)[C@H](O)[C@@H]1O` (stereo partly drawn) [D-galactosamine]: the “OngC activity towards substrate” value is listed as “little or no activity”.

Regarding `N[C@@H]1C(O)O[C@H](CO)[C@@H](O)[C@@H]1O` (stereo partly drawn) [D-mannosamine], the “OngC activity towards substrate” value is on record as “little or no activity”.

For the origin of these results see US11946092B2, “Method for producing 2-keto-3-deoxygluconate from 2-(acetylamino)-2-deoxy-d-gluconic acid by two enzymes” (SHANDONG UNIVERSITY, priority 2022, dated 2024).
